# According to ChEMBL document CHEMBL4673230, “Total Synthesis of Natural Lembehyne C and Investigation of Its Cytotoxic Properties” (J Nat Prod, 2020):
# Assays:
# Jurkat [1] = test: Induction of mitochondrial membrane potential loss in human Jurkat cells assessed as late apoptotic cells at 400 nM after 4 hrs by MitoSense Red/7-AAD. flow cytometric analysis relative to control; type: functional
# Jurkat [2] = test: Induction of cell cycle arrest in human Jurkat cells assessed as accumulation at G2 phase at 100 nM after 24 hrs by Guava Cell Cycle reagent based flow cytometric analysis relative to control; type: functional
# Jurkat [3] = test: Induction of cell cycle arrest in human Jurkat cells assessed as accumulation at super-G2 phase at 50 nM after 24 hrs by Guava Cell Cycle reagent based flow cytometric analysis relative to control; type: functional
# Jurkat [4] = test: Induction of ROS generation in human Jurkat cells at 200 nM after 2 hrs by MitoSox Red/annexin V-CF488A staining based flow cytometric analysis relative to control; type: functional
# Jurkat [5] = test: Induction of cell cycle arrest in human Jurkat cells assessed as accumulation at S phase at 50 nM after 24 hrs by Guava Cell Cycle reagent based flow cytometric analysis relative to control; type: functional
# [6] = Effect on total p70S6K level in human jurkat cells at 400 nM by magnetic bead based immunoassay; type: cell-based; details: 0.4 µM
# [7] = Effect on total JNK in human jurkat cells at 400 nM by magnetic bead based immunoassay; type: cell-based; details: 0.4 µM
# HL-60 = test: Cytotoxicity against human HL-60 cells assessed as reduction in cell viability by 7-AAD staining based flow cytometric analysis; type: functional
# Jurkat [8] = test: Induction of cell cycle arrest in human Jurkat cells assessed as accumulation at S phase at 100 nM after 24 hrs by Guava Cell Cycle reagent based flow cytometric analysis relative to control; type: functional
# Jurkat [9] = test: Induction of cell cycle arrest in human Jurkat cells assessed as accumulation at super-G2 phase at 200 nM after 24 hrs by Guava Cell Cycle reagent based flow cytometric analysis relative to control; type: functional
# Jurkat [10] = test: Induction of cell cycle arrest in human Jurkat cells assessed as accumulation at S phase at 200 nM after 24 hrs by Guava Cell Cycle reagent based flow cytometric analysis relative to control; type: functional
# Jurkat [11] = test: Induction of ROS generation in human Jurkat cells assessed as apoptotic cells at 200 nM after 24 hrs by MitoSox Red/annexin V-CF488A staining based flow cytometric analysis (reference value: 3.18%); type: functional
# [12] = Effect on total CREB level in human jurkat cells at 400 nM by magnetic bead based immunoassay; type: cell-based; details: 0.4 µM
# Jurkat [13] = test: Induction of cell cycle arrest in human Jurkat cells assessed as accumulation at G1 phase at 200 nM after 24 hrs by Guava Cell Cycle reagent based flow cytometric analysis relative to control; type: functional
# Jurkat [14] = test: Induction of ROS generation in human Jurkat cells assessed as apoptotic cells with clear mitochondrial damages at 200 nM after 24 hrs by MitoSox Red/annexin V-CF488A staining based flow cytometric analysis (reference value: 0.39%); type: functional
# Jurkat [15] = test: Induction of cell cycle arrest in human Jurkat cells assessed as accumulation at S phase at 400 nM after 24 hrs by Guava Cell Cycle reagent based flow cytometric analysis relative to control; type: functional
# Jurkat [16] = test: Induction of mitochondrial membrane potential loss in human Jurkat cells assessed as late apoptotic cells at 200 nM after 4 hrs by MitoSense Red/7-AAD. flow cytometric analysis relative to control; type: functional
# Jurkat [17] = test: Induction of mitochondrial membrane potential loss in human Jurkat cells assessed as early apoptotic cells at 400 nM after 4 hrs by MitoSense Red/7-AAD. flow cytometric analysis relative to control; type: functional
# Jurkat [18] = test: Induction of cell cycle arrest in human Jurkat cells assessed as accumulation at G1 phase at 100 nM after 24 hrs by Guava Cell Cycle reagent based flow cytometric analysis relative to control; type: functional
# [19] = Effect on total STAT5 level in human jurkat cells at 400 nM by magnetic bead based immunoassay; type: cell-based; details: 0.4 µM
# Jurkat [20] = test: Induction of apoptosis in human Jurkat cells assessed as late apoptotic cells at 200 nM after 24 hrs by Annexin V/7-AAD staining.based flow cytometric analysis relative to control; type: functional
# Jurkat [21] = test: Induction of cell cycle arrest in human Jurkat cells assessed as accumulation at G1 phase at 50 nM after 24 hrs by Guava Cell Cycle reagent based flow cytometric analysis relative to control; type: functional
# Jurkat [22] = test: Induction of ROS generation in human Jurkat cells assessed as apoptotic cells at 200 nM after 4 hrs by MitoSox Red/annexin V-CF488A staining based flow cytometric analysis (reference value: 3.18%); type: functional
# Jurkat [23] = test: Induction of ROS generation in human Jurkat cells assessed as living undamaged cells at 200 nM after 24 hrs by MitoSox Red/annexin V-CF488A staining based flow cytometric analysis (reference value: 95.44%); type: functional
# Jurkat [24] = test: Induction of apoptosis in human Jurkat cells assessed as early apoptotic cells at 100 nM after 24 hrs by Annexin V/7-AAD staining.based flow cytometric analysis relative to control; type: functional
# K562 = test: Cytotoxicity against human K562 cells assessed as reduction in cell viability by 7-AAD staining based flow cytometric analysis; type: functional
# Jurkat [25] = test: Induction of cell cycle arrest in human Jurkat cells assessed as accumulation at G2 phase at 50 nM after 24 hrs by Guava Cell Cycle reagent based flow cytometric analysis relative to control; type: functional
# Jurkat [26] = test: Induction of ROS generation in human Jurkat cells assessed as apoptotic cells with clear mitochondrial damages at 200 nM after 4 hrs by MitoSox Red/annexin V-CF488A staining based flow cytometric analysis (reference value: 0.39%); type: functional
# Jurkat [27] = test: Induction of apoptosis in human Jurkat cells assessed as necrotic cells at 50 nM after 24 hrs by Annexin V/7-AAD staining.based flow cytometric analysis relative to control; type: functional
# Jurkat [28] = test: Induction of apoptosis in human Jurkat cells assessed as viable cells at 400 nM after 24 hrs by Annexin V/7-AAD staining.based flow cytometric analysis relative to control; type: functional; details: read-out: Activity
# Jurkat [29] = test: Induction of apoptosis in human Jurkat cells assessed as late apoptotic cells at 400 nM after 24 hrs by Annexin V/7-AAD staining.based flow cytometric analysis relative to control; type: functional
# Jurkat [30] = test: Induction of cell cycle arrest in human Jurkat cells assessed as accumulation at G2 phase at 200 nM after 24 hrs by Guava Cell Cycle reagent based flow cytometric analysis relative to control; type: functional
# Jurkat [31] = test: Induction of cell cycle arrest in human Jurkat cells assessed as accumulation at G2/G1 phase at 50 nM after 24 hrs by Guava Cell Cycle reagent based flow cytometric analysis relative to control; type: functional
# Jurkat [32] = test: Induction of cell cycle arrest in human Jurkat cells assessed as accumulation at G1 phase at 400 nM after 24 hrs by Guava Cell Cycle reagent based flow cytometric analysis relative to control; type: functional
# Jurkat [33] = test: Induction of ROS generation in human Jurkat cells assessed as living undamaged cells at 200 nM after 2 hrs by MitoSox Red/annexin V-CF488A staining based flow cytometric analysis (reference value: 95.44%); type: functional
# Jurkat [34] = test: Induction of apoptosis in human Jurkat cells assessed as early apoptotic cells at 200 nM after 24 hrs by Annexin V/7-AAD staining.based flow cytometric analysis relative to control; type: functional
# Jurkat [35] = test: Induction of apoptosis in human Jurkat cells assessed as viable cells at 100 nM after 24 hrs by Annexin V/7-AAD staining.based flow cytometric analysis relative to control; type: functional; details: read-out: Activity
smiles,measurement,setting,value
C#C[C@H](O)CCCCCCCCC/C=C\CC/C=C\CC/C=C\CCCCCCCCCCCCCCCC,Activity,Jurkat [1],2.87%
same,Activity,Jurkat [2],7.28%
same,Activity,Jurkat [3],1.35%
same,Activity,Jurkat [4],25.4%
same,Activity,Jurkat [5],27.85%
same,Activity,[6],Toxic
same,Activity,[7],Toxic
same,IC50,HL-60,0.093 µM
same,Activity,Jurkat [8],30.33%
same,Activity,Jurkat [9],0.91%
same,Activity,Jurkat [10],28.57%
same,Activity,Jurkat [11],45.78%
same,Activity,[12],Toxic
same,Activity,Jurkat [13],33.86%
same,Activity,Jurkat [14],20.58%
same,Activity,Jurkat [15],31.5%
same,Activity,Jurkat [16],0.84%
same,Activity,Jurkat [17],3.32%
same,Activity,Jurkat [18],34.96%
same,Activity,[19],Toxic
same,Activity,Jurkat [20],43.15%
same,Activity,Jurkat [21],44.65%
same,Activity,Jurkat [22],3.67%
same,Activity,Jurkat [23],33.64%
same,Activity,Jurkat [24],12.63%
same,IC50,K562,0.373 µM
same,Activity,Jurkat [25],5.09%
same,Activity,Jurkat [26],25.4%
same,Activity,Jurkat [27],2.4%
same,viability at 0.4 µM,Jurkat [28],32.9%
same,Activity,Jurkat [29],50.24%
same,Activity,Jurkat [30],8.65%
same,Activity,Jurkat [31],1.91%
same,Activity,Jurkat [32],30.24%
same,Activity,Jurkat [33],70.77%
same,Activity,Jurkat [34],13.2%
same,viability at 0.1 µM,Jurkat [35],41.7%
